Reference: US6545009B1, “Retinoid-related receptor function regulating agent” (Takeda Chemical Industries, Ltd., priority 1998, dated 2003)

Row | Compound | melting point [°C]
1 | CCOC(=O)c1ccc(-c2coc(-c3ccc(C(F)(F)F)cc3)n2)cc1 [Example 19, ethyl 4-[2-(4-trifluoromethylphenyl)-4-oxazolyl]benzoate] | 168 to 170
2 | CCOC(=O)c1cccc(-c2nc(-c3ccc(C)c(C)c3)cs2)c1 [Example 76, ethyl 3-[4-(3,4-dimethylphenyl)-2-thiazolyl]-benzoate] | 147 to 148
3 | O=C(O)c1ccc(-c2nc(-c3ccc(OC(F)F)cc3)co2)cc1 [Example 24, 4-[4-(4-difluoromethoxylphenyl)-2-oxazolyl]benzoic acid] | 261 to 262
4 | CCOC(=O)c1cccc(-c2nc(-c3ccc(C)c(C)c3)cs2)c1 [Example 74, ethyl 3-[4-(3,4-dimethylphenyl)-2-thiazolyl]benzoate] | 114 to 115
5 | COC(=O)c1ccc(-c2nc(-c3ccc(Br)cc3)cs2)cc1 [Example 75, methyl 4-[4-(4-bromophenyl)-2-thiazolyl]benzoate] | 206 to 207
6 | O=C(O)c1cccc(-c2nc(-c3ccc(C(F)(F)F)cc3)cs2)c1 [Example 67, 3-[4-(4-trifluoromethylphenyl)-2-thiazolyl]benzoic acid] | 230 to 231
7 | COC(=O)c1cccc(-c2nc(-c3ccc(OC)cc3)cs2)c1 [Example 47, methyl 3-[4-(4-methoxyphenyl)-2-thiazolyl]benzoate] | 108 to 109
8 | Br.COC(=O)c1ccc(-c2nc(-c3ccncc3)cs2)cc1 [Example 35, methyl 4-[4-(4-pyridyl)-2-thiazolyl]benzoate hydrobromide] | 238 to 240
9 | COC(=O)c1cccc(-c2nc(-c3ccc(F)cc3F)cs2)c1 [Example 46, methyl 3-[4-(2,4-difluorophenyl)-2-thiazolyl]benzoate] | 121 to 122
10 | COC(=O)c1cccc(-c2nc(-c3ccc(C(F)(F)F)cc3)co2)c1 [Example 21, methyl 3-[4-(4-trifluoromethylphenyl)-2-oxazolyl]benzoate] | 151 to 152
11 | COC(=O)c1ccc(-c2nc(-c3cccc(C(F)(F)F)c3)co2)cc1 [Example 16, methyl 4-[4-(3-trifluoromethylphenyl)-2-oxazolyl]benzoate] | 134 to 135
12 | COC(=O)c1ccc(-c2nc(-c3ccc(C)cc3)cs2)cc1 [Example 33, methyl 4-[4-(4-methylphenyl)-2-thiazolyl]benzoate] | 185 to 187
13 | COC(=O)c1ccc(-c2nc(-c3cccc(Cl)c3)cs2)cc1 [Example 43, methyl 4-[4-(3-chlorophenyl)-2-thiazolyl]benzoate] | 150 to 151
14 | O=C(O)c1cccc(-c2nc(-c3ccc(C(F)(F)F)cc3)co2)c1 [Example 27, 3-[4-(4-trifluoromethylphenyl)-2-oxazolyl]benzoic acid] | 206 to 208
15 | CCOC(=O)c1cccc(-c2nc(-c3cc(C)sc3C)cs2)c1 [Example 78, ethyl 3-[4-(2,5-dimethyl-3-thienyl)-2-thiazolyl]benzoate] | 115 to 116
16 | Br.COC(=O)c1ccc(-c2nc(-c3cccnc3)cs2)cc1 [Example 34, methyl 4-[4-(3-pyridyl)-2-thiazolyl]benzoate hydrobromide] | 241 to 242

Row | Compound | melting point [°C]
17 | O=C(O)c1ccc(-c2nc(-c3c(F)c(F)c(F)c(F)c3F)cs2)cc1 [Example 65, 4-[4-(2,3,4,5,6-pentafluorophenyl)-2-thiazolyl]benzoic acid] | 273 to 274
18 | COC(=O)c1ccc(-c2nc(-c3ccc(OC(F)(F)F)cc3)cs2)cc1 [Example 41, methyl 4-[4-(4-trifluoromethoxyphenyl)-2-thiazolyl]benzoate] | 138 to 139
19 | Br.CCOC(=O)c1ccc(-c2csc(-c3ccncc3)n2)cc1 [Example 36, ethyl 4-[2-(4-pyridyl)-4-thiazolyl]benzoate hydrobromide] | 248 to 250
20 | COC(=O)c1ccc(-c2nc(-c3cc(C)oc3C)cs2)cc1 [Example 77, methyl 4-[4-(2,5-dimethyl-3-furyl)-2-thiazolyl]benzoate] | 103 to 105
21 | COC(=O)c1ccc(-c2nc(-c3cc(C)sc3C)cs2)cc1 [Example 79, methyl 4-[4-(2,5-dimethyl-3-thienyl)-2-thiazolyl]benzoate] | 109 to 110
22 | COC(=O)c1cccc(-c2nc(-c3cccc(OC(F)(F)F)c3)cs2)c1 [Example 50, methyl 3-[4-(3-trifluoromethoxyphenyl)-2-thiazolyl]benzoate] | 84 to 85
23 | COC(=O)c1ccc(-c2nc(-c3ccc(C(F)(F)F)cc3)co2)cc1 [Example 2, methyl 4-[4-(4-trifluoromethylphenyl)-2-oxazolyl]benzoate] | 182 to 183
24 | COc1ccc(-c2csc(-c3cccc(C(=O)O)c3)n2)cc1 [Example 70, 3-[4-(4-methoxyphenyl)-2-thiazolyl]benzoic acid] | 236 to 238
25 | COC(=O)c1ccc(-c2nc(-c3ccccc3)co2)cc1 [Example 4, methyl 4-(4-phenyl-2-oxazolyl)benzoate] | 175 to 176
26 | O=C(O)c1ccc(-c2nc(-c3cccc(OC(F)(F)F)c3)cs2)cc1 [Example 63, 4-[4-(3-trifluoromethoxylphenyl)-2-thiazolyl]benzoic acid] | 233 to 234
27 | O=C(O)c1ccc(-c2nc(-c3cc(C(F)(F)F)cc(C(F)(F)F)c3)co2)cc1 [Example 23, 4-[4-[3,5-bis(trifluoromethyl)phenyl)-2-oxazolyl]benzoic acid] | 277 to 279
28 | O=C(O)c1ccc(-c2nc(-c3cccnc3)cs2)cc1 [Example 57, 4-[4-(3-pyridyl)-2-thiazolyl]benzoic acid] | 303 to 304
29 | CCOC(=O)c1ccc(-c2coc(-c3ccccc3)n2)cc1 [Example 5, ethyl 4-(2-phenyl-4-oxazolyl)benzoate] | 110 to 112
30 | COC(=O)c1ccc(-c2nc(-c3cc(Cl)sc3Cl)cs2)cc1 [Example 80, methyl 4-[4-(2,5-dichloro-3-thienyl)-2-thiazolyl]benzoate] | 149 to 150
31 | O=C(O)c1ccc(-c2nc(-c3ccncc3)cs2)cc1 [Example 58, 4-[4-(4-pyridyl)-2-thiazolyl]benzoic acid] | > 300
32 | CCOC(=O)c1ccc(-c2csc(-c3ccc(Cl)cc3)n2)s1 [Example 39, ethyl 5-[2-(4-chlorophenyl)-4-thiazolyl]-2-thienylcarboxylate] | 234 to 236

Now from value to compound:

Row | melting point [°C] | Compound
33 | 265 to 266 | O=C(O)c1cccc(-c2nc(-c3ccc(Cl)cc3)cs2)c1 [compound 12, 3-[4-(4-chlorophenyl)-2-thiazolyl]benzoic acid]
34 | > 300 | O=C(O)c1ccc(-c2nc(-c3ccc(Br)cc3)cs2)cc1 [Example 89, 4-[4-(4-bromophenyl)-2-thiazolyl]benzoic acid]
35 | 245 to 248 | O=C(O)c1ccc(-c2csc(-c3ccccc3)n2)cc1 [Reference Example 9, 4-(2-phenyl-4-thiazolyl]benzoic acid]
36 | 257 to 258 | CC(C)c1ccc(-c2csc(-c3ccc(C(=O)O)cc3)n2)cc1 [Example 101, 4-[4-(4-isopropylphenyl)-2-thiazolyl]benzoic acid]
37 | 125 to 126 | CCOC(=O)c1cccc(-c2nc(-c3cc(Cl)sc3Cl)cs2)c1 [Example 81, ethyl 3-[4-(2,5-dichloro-3-thienyl)-2-thiazolyl]benzoate]
38 | 142 to 143 | CCOC(=O)c1ccc(-c2cnc(-c3ccc(C(F)(F)F)cc3)o2)cc1 [Example 107, ethyl 4-[2-(4-trifluoromethylphenyl)-5-oxazolyl]benzoate]
39 | 192 to 193 | CCOc1ccc(-c2csc(-c3cccc(C(=O)OC)c3)n2)cc1 [Example 83, methyl 3-[4-(4-ethoxyphenyl)-2-thiazolyl]benzoate]
40 | 261 to 262 | Cc1ccc(-c2csc(-c3ccc(C(=O)O)cc3)n2)cc1C [Example 90, 4-[4-(3,4-dimethylphenyl)-2-thiazolyl]benzoic acid]
41 | 268 to 270 | O=C(O)c1ccc(-c2cnc(-c3ccc(Cl)cc3)o2)cc1 [compound 13, 4-[2-(4-chlorophenyl)-5-oxazolyl]benzoic acid]
42 | 195 to 197 | CCOC(=O)c1ccc(-c2ncc(-c3ccc(Cl)cc3)o2)cc1 [Example 108, ethyl 4-[5-(4-chlorophenyl)-2-oxazolyl]benzoate]
43 | > 300 | O=C(O)c1ccc(-c2ncc(-c3ccc(Cl)cc3)s2)cc1 [Example 114, 4-[5-(4-chlorophenyl)-2-thiazolyl]benzoic acid]
44 | 235 to 236 | Cc1ccc(-c2csc(-c3cccc(C(=O)O)c3)n2)cc1C [Example 88, 3-[4-(3,4-dimethylphenyl)-2-thiazolyl]benzoic acid]
45 | 250 to 251 | CC(C)(C)c1ccc(-c2csc(-c3cccc(C(=O)O)c3)n2)cc1 [Example 98, 3-[4-(4-t-butylphenyl)-2-thiazolyl]benzoic acid]
46 | 263 to 265 | CCCCc1ccc(-c2csc(-c3ccc(C(=O)O)cc3)n2)cc1 [Example 99, 4-[4-(4-butylphenyl)-2-thiazolyl]benzoic acid]
47 | 167 to 168 | CCOC(=O)c1ccc(-c2ncc(-c3ccc(Cl)cc3)s2)cc1 [Example 112, ethyl 4-[5-(4-chlorophenyl)-2-thiazolyl]benzoate]
48 | 163 to 164 | CCOC(=O)c1ccc(-c2csc(-c3ccc(C(F)(F)F)cc3)n2)cc1 [Example 104, ethyl 4-[2-(4-trifluoromethylphenyl)-4-thiazolyl)benzoate]
49 | 154 to 155 | COC(=O)c1ccc(-c2nc(-c3ccc(C(C)(C)C)cc3)cs2)cc1 [Example 85, methyl 4-[4-(4-t-butylphenyl)-2-thiazolyl]benzoate]
50 | 72 to 73 | CCOC(=O)c1ccc(-c2csc(-c3ccccc3)n2)cc1 [Example 102, ethyl 4-(2-phenyl-4-thiazolyl]benzoate]
51 | 284 to 285 | O=C(O)c1ccc(-c2csc(-c3ccc(Cl)cc3)n2)cc1 [compound 10, 4-[2-(4-chlorophenyl)-4-thiazolyl]benzoic acid]
